Results published in patent publication US20040102431A1, “Substituted amino-aza-cycloalkanes useful against malaria” (priority 2000, published 2004).

Each compound was assayed against plasmepsin II (Plasmodium falciparum, UniProt P46925) (assay: biochemical). Details: not given.
Chain of plasmepsin II (P46925 125-453): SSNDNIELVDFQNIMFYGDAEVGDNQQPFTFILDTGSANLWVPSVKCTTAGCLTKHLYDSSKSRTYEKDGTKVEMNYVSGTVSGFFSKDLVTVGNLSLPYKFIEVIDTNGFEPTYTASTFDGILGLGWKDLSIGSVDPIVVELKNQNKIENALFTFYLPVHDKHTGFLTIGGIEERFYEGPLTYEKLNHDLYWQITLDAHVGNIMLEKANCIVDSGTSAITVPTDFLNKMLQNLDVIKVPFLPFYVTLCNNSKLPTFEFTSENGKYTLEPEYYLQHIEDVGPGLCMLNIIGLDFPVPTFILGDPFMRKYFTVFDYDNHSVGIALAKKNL
In the case of `CCCCCc1ccc(C(=O)N(CCCc2ccccc2)C2CCN(Cc3ccccc3)CC2)cc1` [Example 2], the IC50 is reported as 1500 nM.

Same assay, conditions: Additional Examples table; FRET, pH 5, 37° C., 40 min, substrate 1 μM; read-out: IC50 (nM) on plasmepsin II
For `CCCCCc1ccc(C(=O)N(Cc2ccc(OCc3ccccc3)cc2)C2CCCN(Cc3ccccc3)C2)cc1` (racemic) [Example 105, (rac.)-N-(4-Benzyloxybenzyl)-N-(1-benzylpiperidin-3-yl)-4-pentyl-benzamide], the IC50 was 458 nM. Compound `CCCCCc1ccc(C(=O)N(Cc2ccc(-c3ccc(OC)c(OC)c3)cc2)C2CCN(CC3=CCCCC3)CC2)cc1` [Example 38, N-(1-Cyclohex-1-enylmethyl-piperidin-4-yl)-N-(3′,4′-dimethoxybiphenyl-4-ylmethyl)-4-pentylbenzamide] has an IC50 of 19 nM. With `CCCCCc1ccc(C(=O)N(Cc2ccc(-c3cccnc3)cc2)C2CCN(CCC(C)C)CC2)cc1` [Example 39, N-[1-(3-Methylbutyl)piperidin-4-yl]-4-pentyl-N-(4-pyridin-3-yl-benzyl)benzamide] the IC50 was 20 nM. `CCCCCc1ccc(C(=O)N(Cc2ccc(-c3ccc(C#N)cc3)cc2)C2CCN(CC3=CCCCC3)CC2)cc1` [Example 40, N-(4′-Cyanobiphenyl-4-ylmethyl)-N-(1-cyclohex-1-enylmethyl-piperidin-4-yl)-4-pentylbenzamide] gave an IC50 of 25 nM. In the case of `CCCCCc1ccc(C(=O)N(Cc2ccc(-c3ccc(OC)c(OC)c3)cc2)C2CCN(Cc3ccncc3)CC2)cc1` [Example 41, N-(3′,4′-Dimethoxybiphenyl-4-ylmethyl)-4-pentyl-N-(1-pyridin-4-ylmethylpiperidin-4-yl)benzamide], the IC50 is reported as 25 nM. With `CCCCCc1ccc(C(=O)N(Cc2ccc(-c3ccc(C#N)cc3)cc2)C2CCN(Cc3ccncc3)CC2)cc1` [Example 42, N-(4′-Cyano-biphenyl-4-ylmethyl)-4-pentyl-N-(1-pyridin-4-ylmethylpiperidin-4-yl)benzamide] the IC50 was 28 nM. Compound `CCCCCc1ccc(C(=O)N(Cc2ccc(-c3ccc(OC)c(OC)c3)cc2)C2CCN(Cc3ccoc3)CC2)cc1` [Example 43, N-(3′,4′-Dimethoxybiphenyl-4-ylmethyl)-N-(1-furan-3-ylmethylpiperidin-4-yl)-4-pentylbenzamide] has an IC50 of 31 nM. For `CCCCCc1ccc(C(=O)N(Cc2ccc(-c3ccc(OCCO)cc3)cc2)C2CCN(Cc3ccncc3)CC2)cc1` [Example 44, N-[4′-(2-Hydroxyethoxy)-biphenyl-4-ylmethyl]-4-pentyl-N-(1-pyridin-4-ylmethylpiperidin-4-yl)benzamide], the IC50 was 39 nM. `CCCCCc1ccc(C(=O)N(Cc2ccc(-c3cccnc3)cc2)C2CCN(Cc3ccsc3)CC2)cc1` [Example 45, 4-Pentyl-N-(4-pyridin-3-yl-benzyl)-N-(1-thiophen-3-ylmethylpiperidin-4-yl)benzamide] showed an IC50 of 42 nM. `CCCCCc1ccc(C(=O)N(Cc2ccc(-c3ccc(OC)c(OC)c3)cc2)C2CCN(Cc3cccnc3)CC2)cc1` [Example 46, N-(3′,4′-Dimethoxybiphenyl-4-ylmethyl)-4-pentyl-N-(1-pyridin-3-ylmethylpiperidin-4-yl)benzamide] was tested, and the IC50 was 45 nM. With `CCCCCc1ccc(C(=O)N(Cc2ccc(-c3cccnc3)cc2)C2CCN(CC3CCCCC3)CC2)cc1` [Example 47, N-(1-Cyclohexylmethyl-piperidin-4-yl)-4-pentyl-N-(4-pyridin-3-yl-benzyl)benzamide] the IC50 was 46 nM. `CCCCCc1ccc(C(=O)N(Cc2ccc(-c3ccc(OC)c(OC)c3)cc2)C2CCN(Cc3ccccc3)CC2)cc1` [Example 48, N-(1-Benzylpiperidin-4-yl)-N-(3′,4′-dimethoxybiphenyl-4-ylmethyl)-4-pentylbenzamide] was tested, and the IC50 was 48 nM. `CCCCCc1ccc(C(=O)N(Cc2ccc(-c3ccc4c(c3)OCO4)cc2)C2CCN(Cc3ccoc3)CC2)cc1` [Example 49, N-(4-Benzo[1,3]dioxol-5-yl-benzyl)-N-(1-furan-3-ylmethylpiperidin-4-yl)-4-pentylbenzamide] gave an IC50 of 52 nM. Work on `CCCCCc1ccc(C(=O)N(Cc2ccc(-c3ccc4c(c3)OCO4)cc2)C2CCN(Cc3ccncc3)CC2)cc1` [Example 50, N-(4-Benzo[1,3]dioxol-5-yl-benzyl)-4-pentyl-N-(1-pyridin-4-ylmethylpiperidin-4-yl)benzamide] yielded an IC50 of 54 nM. With `CCCCCc1ccc(C(=O)N(Cc2ccc(-c3ccc(OCCO)cc3)cc2)C2CCN(Cc3ccoc3)CC2)cc1` [Example 51, N-(1-Furan-3-ylmethypiperidin-4-yl)-N-[4′-(2-hydroxyethoxy)biphenyl-4-ylmethyl]-4-pentylbenzamide] the IC50 was 57 nM. For `CCCCCc1ccc(C(=O)N(Cc2ccc(-c3ccc4c(c3)OCO4)cc2)C2CCN(Cc3ccccc3)CC2)cc1` [Example 52, N-(4-Benzo[1,3]dioxol-5-yl-benzyl)-N-(1-benzylpiperidin-4-yl)-4-pentylbenzamide], the IC50 was 58 nM. For `CCCCCc1ccc(C(=O)N(Cc2ccc(-c3ccccc3F)cc2)C2CCN(Cc3ccccc3)CC2)cc1` [Example 53, N-(1-Benzylpiperidin-4-yl)-N-(2′-fluorobiphenyl-4-ylmethyl)-4-pentylbenzamide], the IC50 was 61 nM. Work on `CCCCCc1ccc(C(=O)N(Cc2ccc(-c3cccnc3)cc2)C2CCN(Cc3ccoc3)CC2)cc1` [Example 54, N-(1-Furan-3-ylmethylpiperidin-4-yl)-4-pentyl-N-(4-pyridin-3-yl-benzyl)benzamide] yielded an IC50 of 64 nM. `CCCCCc1ccc(C(=O)N(Cc2ccc(-c3ccc(C#N)cc3)cc2)C2CCN(Cc3cccnc3)CC2)cc1` [Example 55, N-(4′-Cyanobiphenyl-4-ylmethyl)-4-pentyl-N-(1-pyridin-3-ylmethylpiperidin-4-yl)benzamide] gave an IC50 of 68 nM. With `CCCCCc1ccc(C(=O)N(Cc2ccc(-c3ccccc3)cc2)C2CCN(Cc3ccc(OC)cc3)CC2)cc1` [Example 56, N-Biphenyl-4-ylmethyl-N-[1-(4-methoxybenzyl)piperidin-4-yl]-4-pentylbenzamide] the IC50 was 71 nM. Work on `CCCCCc1ccc(C(=O)N(Cc2ccc(-c3ccc4c(c3)OCO4)cc2)C2CCN(CC3=CCCCC3)CC2)cc1` [Example 57, N-(4-Benzo[1,3]dioxol-5-yl-benzyl)-N-(1-cyclohex-1-enylmethyl-piperidin-4-yl)-4-pentyl-benzamide] yielded an IC50 of 75 nM. `CCCCCc1ccc(C(=O)N(Cc2ccc(OCc3ccc(F)cc3)cc2)C2CCN(Cc3ccccc3)CC2)cc1` [Example 58, N-(1-Benzyl-piperidin-4-yl)-N-[4-(4-fluoro-benzyloxy)-benzyl]-4-pentyl-benzamide] gave an IC50 of 79 nM. `CCCCCc1ccc(C(=O)N(Cc2ccc(-c3ccc(C#N)cc3)cc2)C2CCN(Cc3ccccc3)CC2)cc1` [Example 59, N-(1-Benzyl-piperidin-4-yl)-N-(4′-cyano-biphenyl-4-ylmethyl)-4-pentyl-benzamide] showed an IC50 of 81 nM. `CCCCCc1ccc(C(=O)N(Cc2ccc(-c3ccccc3F)cc2)C2CCN(Cc3ccoc3)CC2)cc1` [Example 60, N-(2′-Fluorobiphenyl-4-ylmethyl)-N-(1-furan-3-ylmethylpiperidin-4-yl)-4-pentylbenzamide] gave an IC50 of 87 nM.

Same assay, conditions: […]; FRET, pH 5, 37° C., 40 min, substrate 1 μM; read-out: IC50 (nM) on plasmepsin II
Compound `CCCCCc1ccc(CN(Cc2ccc(-c3ccccc3)cc2)C2CCCN(Cc3ccccc3)CC2)cc1` (racemic) [Example 34] has an IC50 of 1970 nM. Compound `CCCCCc1ccc(C(=O)N(Cc2ccc(-c3ccccc3)cc2)C2CCCN(Cc3ccccc3)CC2)cc1` (racemic) [Example 35] has an IC50 of 1700 nM. In the case of `CCCCCc1ccc(C(=O)N(Cc2ccc(OCc3ccccc3)cc2)C2CCN(Cc3ccccc3)CC2)cc1` [Example 1], the IC50 is reported as 70 nM. Compound `CCCCOc1ccc(C(=O)N(Cc2ccc(OCc3ccccc3)cc2)C2CCN(Cc3ccccc3)CC2)cc1` [Example 3] has an IC50 of 1700 nM. In the case of `CCCCCCCCCCCC(=O)N(Cc1ccc(OCc2ccccc2)cc1)C1CCN(Cc2ccccc2)CC1` [Example 6], the IC50 is reported as 1800 nM. Compound `CCCCCc1ccc(C(=O)N(Cc2ccc(Oc3ccccc3)cc2)C2CCN(Cc3ccccc3)CC2)cc1` [Example 7] has an IC50 of 462 nM. Compound `CCCCCCCCCCCC(=O)N(Cc1ccc(Oc2ccccc2)cc1)C1CCN(Cc2ccccc2)CC1` [Example 9] has an IC50 of 1700 nM. Compound `CCCCCc1ccc(C(=O)N(Cc2ccc(OCc3ccccc3)c(OCc3ccccc3)c2)C2CCN(Cc3ccccc3)CC2)cc1` [Example 10] has an IC50 of 1200 nM. `CCCCOc1ccc(C(=O)N(Cc2ccc(OCc3ccccc3)c(OCc3ccccc3)c2)C2CCN(Cc3ccccc3)CC2)cc1` [Example 11] was tested, and the IC50 was 3200 nM. `CCCCCCCCCCCC(=O)N(Cc1ccc(OCc2ccccc2)c(OCc2ccccc2)c1)C1CCN(Cc2ccccc2)CC1` [Example 13] gave an IC50 of 2400 nM. Work on `CCCCCc1ccc(C(=O)N(Cc2ccc(-c3ccccc3)cc2)C2CCN(Cc3ccccc3)CC2)cc1` [Example 14] yielded an IC50 of 84 nM. For `CCCCOc1ccc(C(=O)N(Cc2ccc(-c3ccccc3)cc2)C2CCN(Cc3ccccc3)CC2)cc1` [Example 15], the IC50 was 1300 nM. `CCCCCCCCCCCC(=O)N(Cc1ccc(-c2ccccc2)cc1)C1CCN(Cc2ccccc2)CC1` [Example 16] gave an IC50 of 1300 nM. For `CCCCCc1ccc(C(=O)N(Cc2ccc(C(F)(F)F)cc2)C2CCN(Cc3ccccc3)CC2)cc1` [Example 18], the IC50 was 148 nM. With `CCCCCc1ccc(C(=O)N(Cc2ccc(OCc3ccccc3)c(OC)c2)C2CCN(Cc3ccccc3)CC2)cc1` [Example 22] the IC50 was 793 nM. In the case of `CCCCCc1ccc(C(=O)N(Cc2ccc(CCCC)cc2)C2CCN(Cc3ccccc3)CC2)cc1` [Example 24], the IC50 is reported as 427 nM. `CCCCCc1ccc(C(=O)N(Cc2ccc(OCCCC)cc2)C2CCN(Cc3ccccc3)CC2)cc1` [Example 25] gave an IC50 of 220 nM. `CCCCCc1ccc(CN(C(=O)c2ccc(CCCCC)cc2)C2CCN(Cc3ccccc3)CC2)cc1` [Example 26] showed an IC50 of 497 nM. Compound `CCCCCc1ccc(CN(Cc2ccc(C(F)(F)F)cc2)C2CCN(Cc3ccccc3)CC2)cc1` [Example 30] has an IC50 of 695 nM. In the case of `CCCCCc1ccc(CN(Cc2ccc(-c3ccccc3)cc2)C2CCN(Cc3ccccc3)CC2)cc1` [Example 31], the IC50 is reported as 210 nM. In the case of `CCCCCc1ccc(C(=O)N(Cc2ccc(-c3ccc(C#N)cc3)cc2)C2CCN(Cc3ccoc3)CC2)cc1` [Example 32], the IC50 is reported as 18 nM. Compound `CCCCCc1ccc(CN(Cc2ccc(-c3ccc(OCCO)cc3)cc2)C2CCN(Cc3ccccc3)CC2)cc1` [Example 33] has an IC50 of 96 nM. In the case of `CCCCCc1ccc(C(=O)N(Cc2ccc(-c3ccccc3)cc2)[C@H]2CCN(Cc3ccccc3)C2)cc1` [Example 36], the IC50 is reported as 164 nM.
